Measurements from PubChem BioAssay (NCI).
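The compound was tested at five concentrations on cells cultured in 96-well plates, with a 48-hour exposure period. GI50 marks 50% less growth. The concentration for full growth arrest is given as TGI.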

What was measured:
Assay in all cases: DTP human tumour cell line panel, 48 h
[1] = tested on: HS 578T breast
[2] = tested on: NCI-H522 lung
[3] = tested on: MALME-3M melanoma
[4] = tested on: HT29 colon
[5] = tested on: NCI/ADR-RES ovarian
[6] = tested on: SNB-75 CNS
[7] = tested on: COLO 205 colon
[8] = tested on: SN12C renal
[9] = tested on: HCC-2998 colon
[10] = tested on: ACHN renal
[11] = tested on: CCRF-CEM leukemia
[12] = tested on: OVCAR-5 ovarian
[13] = tested on: RXF 393 renal
[14] = tested on: EKVX NSCLC
[15] = tested on: MDA-MB-435
[16] = tested on: SK-OV-3 ovarian
[17] = tested on: LOX IMVI melanoma
[18] = tested on: TK-10 renal
[19] = tested on: MDA-MB-468 breast
[20] = tested on: OVCAR-3 ovarian
[21] = tested on: SK-MEL-5 melanoma
[22] = tested on: PC-3 prostate
[23] = tested on: DU-145 prostate
[24] = tested on: OVCAR-4 ovarian
[25] = tested on: SF-539 CNS
[26] = tested on: HL-60(TB) leukemia
[27] = tested on: MDA-MB-231 breast
[28] = tested on: NCI-H226 lung
[29] = tested on: SNB-19 CNS
[30] = tested on: CAKI-1 renal
[31] = tested on: SK-MEL-2 melanoma
[32] = tested on: A498 renal
[33] = tested on: 786-0 renal
[34] = tested on: UACC-257 melanoma
[35] = tested on: UACC-62 melanoma
[36] = tested on: HOP-92 NSCLC
[37] = tested on: SF-295 CNS
[38] = tested on: NCI-H23 lung
[39] = tested on: UO-31 renal
[40] = tested on: HCT-15 colon
[41] = tested on: KM12 colon
[42] = tested on: SF-268 CNS
[43] = tested on: SK-MEL-28 melanoma
[44] = tested on: HOP-62 NSCLC
[45] = tested on: OVCAR-8 ovarian
[46] = tested on: BT-549 breast
[47] = tested on: IGROV1 ovarian
[48] = tested on: SW-620 colon
[49] = tested on: A549 NSCLC
[50] = tested on: HCT-116 colon
[51] = tested on: MOLT-4 leukemia
[52] = tested on: K-562 leukemia
[53] = tested on: SR leukemia
[54] = tested on: U251 CNS
[55] = tested on: RPMI-8226 leukemia
[56] = tested on: M14 melanoma
[57] = tested on: MCF7 breast
[58] = tested on: T-47D breast
[59] = tested on: NCI-H460 lung

`Cn1cc(/C=N/Nc2ccnc3cc(Cl)ccc23)c2ccccc21` showed a GI50 [1] of 1.48 µM, a TGI [1] of 3.49 µM and a GI50 [2] of 1.32 µM. The TGI [2] was 2.75 µM, the GI50 [3] was 1.58 µM and the TGI [3] was 3.02 µM. It also gave a GI50 [4] of 0.185 µM, a TGI [4] of 0.338 µM and a GI50 [5] of 1.04 µM. The TGI [5] was 2.48 µM, the GI50 [6] was 0.639 µM and the TGI [6] was 2.18 µM. It also gave a GI50 [7] of 1.21 µM, a TGI [7] of 2.66 µM and a GI50 [8] of 1.52 µM. The TGI [8] was 2.92 µM, the GI50 [9] was 0.669 µM and the TGI [9] was 1.95 µM. The GI50 [10] was 1.37 µM, the TGI [10] was 2.67 µM and the GI50 [11] was 0.281 µM. For the same compound, the TGI [11] was 0.799 µM, the GI50 [12] was 1.68 µM and the TGI [12] was 3.06 µM. For the same compound, the GI50 [13] was 1.53 µM, the TGI [13] was 3 µM and the GI50 [14] was 1.26 µM. For the same compound, the TGI [14] was 2.58 µM, the GI50 [15] was 0.609 µM and the TGI [15] was 1.91 µM. The GI50 [16] was 1.39 µM, the TGI [16] was 2.9 µM and the GI50 [17] was 0.175 µM. It also gave a TGI [17] of 0.323 µM, a GI50 [18] of 2.52 µM and a TGI [18] of 4.04 µM. For the same compound, the GI50 [19] was 0.239 µM, the TGI [19] was 0.563 µM and the GI50 [20] was 0.206 µM. For the same compound, the TGI [20] was 0.468 µM, the GI50 [21] was 1.45 µM and the TGI [21] was 2.77 µM. The GI50 [22] was 1.15 µM, the TGI [22] was 2.67 µM and the GI50 [23] was 0.978 µM. The TGI [23] was 2.4 µM, the GI50 [24] was 0.531 µM and the TGI [24] was 1.2 µM. It also gave a GI50 [25] of 0.181 µM, a TGI [25] of 0.342 µM and a GI50 [26] of 0.205 µM. For the same compound, the TGI [26] was 0.466 µM, the GI50 [27] was 0.202 µM and the TGI [27] was 0.488 µM. For the same compound, the GI50 [28] was 1.5 µM, the TGI [28] was 3.25 µM and the GI50 [29] was 1.05 µM. It also gave a TGI [29] of 2.49 µM, a GI50 [30] of 1.3 µM and a TGI [30] of 2.65 µM. The GI50 [31] was 1.6 µM, the TGI [31] was 3.04 µM and the GI50 [32] was 1.97 µM. It also gave a TGI [32] of 3.5 µM, a GI50 [33] of 0.274 µM and a TGI [33] of 0.717 µM. The GI50 [34] was 1.55 µM, the TGI [34] was 2.97 µM and the GI50 [35] was 1.54 µM. It also gave a TGI [35] of 2.97 µM, a GI50 [36] of 1.42 µM and a TGI [36] of 3 µM. The GI50 [37] was 1.23 µM, the TGI [37] was 2.53 µM and the GI50 [38] was 1.21 µM. For the same compound, the TGI [38] was 2.52 µM, the GI50 [39] was 1.24 µM and the TGI [39] was 2.52 µM. It also gave a GI50 [40] of 0.293 µM, a TGI [40] of 0.823 µM and a GI50 [41] of 1.65 µM. For the same compound, the TGI [41] was 3.15 µM, the GI50 [42] was 1.72 µM and the TGI [42] was 3.59 µM. It also gave a GI50 [43] of 1.7 µM, a TGI [43] of 3.09 µM and a GI50 [44] of 1.52 µM. For the same compound, the TGI [44] was 3.13 µM, the GI50 [45] was 1.63 µM and the TGI [45] was 3.29 µM. It also gave a GI50 [46] of 1.62 µM, a TGI [46] of 3.11 µM and a GI50 [47] of 1.41 µM. The TGI [47] was 2.82 µM.
`N#C/C(=C/c1cccs1)c1cccs1` was tested, and the GI50 [19] was 24.1 µM and the TGI [19] was greater than 100 µM.
With `C=C(C)[C@@H]1CC[C@]2(c3ncc(C)o3)CC[C@]3(C)[C@H](CC[C@@H]4[C@@](C)(CCC#N)[C@H](C(=C)C)CC[C@]43C)[C@@H]12` the GI50 [19] was 3 µM and the TGI [19] was 12.9 µM.
Work on `C=C(C)[C@@H]1CC[C@]2(C)[C@H](CC=C3[C@@H]4CC(C)(C)CC[C@]4(C(=O)OC)CC[C@]32C)[C@@]1(C)CC/C(N)=N/O` yielded a GI50 [19] of 1.85 µM and a TGI [19] of 5.06 µM.
`CCN1CCN(Cc2ccc(C(=O)Nc3cccc(-c4cn(-c5ccc6oc(=O)ccc6c5)nn4)c3)cc2C(F)(F)F)CC1` was tested, and the GI50 [1] was 18.2 µM, the TGI [1] was 67 µM and the GI50 [2] was 17.2 µM. It also gave a TGI [2] of 30.9 µM, a GI50 [3] of 1.6 µM and a TGI [3] of 3 µM. The GI50 [4] was 1.77 µM, the TGI [4] was 3.72 µM and the GI50 [48] was 1.71 µM. The TGI [48] was 3.41 µM, the GI50 [5] was 1.82 µM and the TGI [5] was 3.54 µM. It also gave a GI50 [6] of 12.2 µM, a TGI [6] of 24.6 µM and a GI50 [7] greater than 100 µM. The TGI [7] was greater than 100 µM, the GI50 [8] was 14.3 µM and the TGI [8] was 27.4 µM. For the same compound, the GI50 [49] was 1.79 µM, the TGI [49] was 3.64 µM and the GI50 [50] was 1.82 µM. It also gave a TGI [50] of 3.68 µM, a GI50 [9] of 2.52 µM and a TGI [9] of 5.47 µM. For the same compound, the GI50 [10] was 10.9 µM, the TGI [10] was 22.9 µM and the GI50 [11] was 2.23 µM. It also gave a TGI [11] of 8.3 µM, a GI50 [12] of 16.2 µM and a TGI [12] of 29.7 µM. It also gave a GI50 [13] of 1.77 µM, a TGI [13] of 3.47 µM and a GI50 [14] of 3.81 µM. It also gave a TGI [14] of 14.6 µM, a GI50 [51] of 2.88 µM and a TGI [51] of 12.9 µM. The GI50 [15] was 1.76 µM, the TGI [15] was 3.6 µM and the GI50 [16] was 21.7 µM. It also gave a TGI [16] of 79.4 µM, a GI50 [52] of 2.34 µM and a TGI [52] of 7.26 µM. It also gave a GI50 [17] of 1.69 µM, a TGI [17] of 3.06 µM and a GI50 [18] of 19.9 µM. The TGI [18] was 34.1 µM, the GI50 [53] was 6.47 µM and the TGI [53] was 52.6 µM. For the same compound, the GI50 [19] was 12.3 µM, the TGI [19] was 27.4 µM and the GI50 [20] was 16.5 µM. The TGI [20] was 30 µM, the GI50 [21] was 5.5 µM and the TGI [21] was 18 µM. For the same compound, the GI50 [54] was 1.91 µM, the TGI [54] was 4.03 µM and the GI50 [23] was 15.8 µM. For the same compound, the TGI [23] was 29.2 µM, the GI50 [24] was 13.9 µM and the TGI [24] was 27.6 µM. The GI50 [25] was 12.2 µM, the TGI [25] was 24.6 µM and the GI50 [55] was 2.62 µM. The TGI [55] was 12.2 µM, the GI50 [26] was 30.1 µM and the TGI [26] was greater than 100 µM. The GI50 [27] was 1.78 µM, the TGI [27] was 3.2 µM and the GI50 [28] was 13.6 µM. For the same compound, the TGI [28] was 27 µM, the GI50 [29] was 17.3 µM and the TGI [29] was 31.1 µM. It also gave a GI50 [30] of 16.5 µM, a TGI [30] of 39.7 µM and a GI50 [31] of 58.3 µM. The TGI [31] was greater than 100 µM, the GI50 [32] was 29.1 µM and the TGI [32] was greater than 100 µM. The GI50 [33] was 2.05 µM, the TGI [33] was 4.05 µM and the GI50 [34] was 19.2 µM. For the same compound, the TGI [34] was 43.3 µM, the GI50 [35] was 12.3 µM and the TGI [35] was 24.7 µM. It also gave a GI50 [56] of 2.46 µM, a TGI [56] of 6.86 µM and a GI50 [57] of 1.68 µM. The TGI [57] was 3.2 µM, the GI50 [36] was 11.1 µM and the TGI [36] was 39.8 µM. The GI50 [37] was 14.8 µM, the TGI [37] was 28 µM and the GI50 [38] was 1.79 µM. The TGI [38] was 3.56 µM, the GI50 [39] was 10.6 µM and the TGI [39] was 22.4 µM. For the same compound, the GI50 [40] was 1.78 µM, the TGI [40] was 3.45 µM and the GI50 [41] was 5.37 µM. It also gave a TGI [41] of 17.6 µM, a GI50 [58] greater than 100 µM and a TGI [58] greater than 100 µM. For the same compound, the GI50 [42] was 18.1 µM, the TGI [42] was 45.6 µM and the GI50 [43] was 1.81 µM. It also gave a TGI [43] of 3.29 µM, a GI50 [44] of 16.4 µM and a TGI [44] of 31.4 µM. For the same compound, the GI50 [45] was 7.71 µM, the TGI [45] was 20.3 µM and the GI50 [46] was greater than 100 µM. For the same compound, the TGI [46] was greater than 100 µM, the GI50 [59] was 3.61 µM and the TGI [59] was 12.6 µM. It also gave a GI50 [47] of 10.5 µM and a TGI [47] of 22.3 µM.
Work on `COc1cc2c(C#N)n3c(c2cc1OC)C(=O)C(c1ccccc1)Oc1ccccc1-3` (stereo not given) yielded a GI50 [19] of 4.68 µM and a TGI [19] greater than 100 µM.
`CN1CCN(c2ccc3nc(-c4ccc5nc(-c6ccc(C(F)(F)F)cc6)[nH]c5c4)[nH]c3c2)CC1` was tested, and the GI50 [19] was 1.85 µM and the TGI [19] was 3.65 µM.
